Assay: xn = mol fraction of the nth substance listed

CC(C)OCCO + CN1CCCC1=O
298.15 K, 101 kPa
Conditions | viscosity [mPa·s]
x1 = 0.004 | 1.691
x1 = 0.0105 | 1.702
x1 = 0.0362 | 1.729
x1 = 0.0624 | 1.753
x1 = 0.088 | 1.764
x1 = 0.1136 | 1.779
x1 = 0.1577 | 1.814
x1 = 0.2017 | 1.843
x1 = 0.2462 | 1.882
x1 = 0.3116 | 1.929
x1 = 0.3451 | 1.955
x1 = 0.3748 | 1.969
x1 = 0.4055 | 1.989
x1 = 0.4494 | 2.011
x1 = 0.5127 | 2.045
x1 = 0.5735 | 2.073
x1 = 0.6423 | 2.096
x1 = 0.7229 | 2.118
x1 = 0.7639 | 2.134
x1 = 0.8354 | 2.127
x1 = 0.9185 | 2.12
x1 = 0.9736 | 2.109
x2 = 0.0086 | 2.107

CCCCOCCO + O=[N+]([O-])c1ccccc1
298.15 K, 101 kPa
Conditions | viscosity [mPa·s]
x2 = 0.0547 | 2.794
x2 = 0.1022 | 2.774
x2 = 0.2045 | 2.736
x2 = 0.3045 | 2.699
x2 = 0.4006 | 2.651
x2 = 0.4508 | 2.618
x2 = 0.4991 | 2.58
x2 = 0.5486 | 2.537
x2 = 0.594 | 2.492
x2 = 0.6924 | 2.376
x2 = 0.7994 | 2.223
x2 = 0.8996 | 2.042
x2 = 0.9389 | 1.959

COC(=O)c1ccccc1 + C1COCCO1
viscosity [mPa·s], 100 kPa
Conditions | x1 = 0.0898 | x1 = 0.1468 | x1 = 0.228 | x1 = 0.3145 | x1 = 0.4054 | x1 = 0.5056 | x1 = 0.6161 | x1 = 0.7316 | x1 = 0.8597
303.15 K | 1.13 | 1.157 | 1.198 | 1.244 | 1.293 | 1.352 | 1.418 | 1.491 | 1.573
308.15 K | 1.038 | 1.066 | 1.106 | 1.147 | 1.192 | 1.246 | 1.308 | 1.376 | 1.449
313.15 K | 0.984 | 1.006 | 1.04 | 1.075 | 1.11 | 1.157 | 1.208 | 1.263 | 1.324

C=CC(=O)OC(C)(C)C + C1CCOC1
viscosity [mPa·s], 101 kPa
Conditions | 293.15 K | 298.15 K | 303.15 K | 308.15 K | 313.15 K | 318.15 K
x2 = 0.0736 | 0.8645 | 0.7935 | 0.7273 | 0.6717 | 0.622 | 0.579
x2 = 0.1489 | 0.8229 | 0.757 | 0.6954 | 0.6433 | 0.5964 | 0.5554
x2 = 0.2121 | 0.7896 | 0.7278 | 0.6699 | 0.6206 | 0.5759 | 0.5365
x2 = 0.2773 | 0.7568 | 0.6992 | 0.6449 | 0.5984 | 0.5558 | 0.5179
x2 = 0.362 | 0.7164 | 0.664 | 0.6143 | 0.5711 | 0.5312 | 0.495
x2 = 0.4382 | 0.6823 | 0.6343 | 0.5886 | 0.5482 | 0.5105 | 0.4758
x2 = 0.5024 | 0.6551 | 0.6107 | 0.5681 | 0.53 | 0.494 | 0.4604
x2 = 0.5815 | 0.6237 | 0.5835 | 0.5446 | 0.5091 | 0.475 | 0.4427
x2 = 0.6532 | 0.597 | 0.5605 | 0.5247 | 0.4914 | 0.4589 | 0.4276
x2 = 0.7268 | 0.5716 | 0.5385 | 0.5058 | 0.4745 | 0.4435 | 0.4131
x2 = 0.7921 | 0.5505 | 0.5204 | 0.4902 | 0.4607 | 0.4308 | 0.4012
x2 = 0.8698 | 0.5273 | 0.5006 | 0.4732 | 0.4455 | 0.4168 | 0.3879
x2 = 0.9352 | 0.5094 | 0.4853 | 0.4601 | 0.4337 | 0.4059 | 0.3776

CNC=O + CCCO
viscosity [mPa·s], 101 kPa
Conditions | x2 = 0.1009 | x2 = 0.2001 | x2 = 0.3003 | x2 = 0.4003 | x2 = 0.5005 | x2 = 0.6 | x2 = 0.7001 | x2 = 0.8009 | x2 = 0.9007
303.15 K | 1.545 | 1.51 | 1.475 | 1.454 | 1.441 | 1.444 | 1.464 | 1.52 | 1.605
308.15 K | 1.423 | 1.389 | 1.357 | 1.336 | 1.322 | 1.321 | 1.337 | 1.381 | 1.448
313.15 K | 1.316 | 1.284 | 1.252 | 1.231 | 1.216 | 1.213 | 1.225 | 1.258 | 1.31
318.15 K | 1.22 | 1.189 | 1.158 | 1.138 | 1.123 | 1.118 | 1.124 | 1.149 | 1.188
323.15 K | 1.134 | 1.105 | 1.075 | 1.054 | 1.036 | 1.03 | 1.034 | 1.051 | 1.079

CCCCOCCO + CCCCO
101 kPa
Conditions | viscosity [mPa·s]
298.15 K, x1 = 0.7025 | 2.645
303.15 K, x1 = 0.4 | 2.255
303.15 K, x1 = 0.6054 | 2.345
303.15 K, x1 = 0.8042 | 2.475
308.15 K, x1 = 0.7025 | 2.045

CCCCCCBr + C1COCCO1
303.15 K, 101.3 kPa
Conditions | viscosity [mPa·s]
x2 = 0.1105 | 0.8848
x2 = 0.3021 | 0.8777
x2 = 0.4972 | 0.9007
x2 = 0.698 | 0.947
x2 = 0.8997 | 1.03

CNC=O + CC(O)CO
viscosity [mPa·s], 101 kPa
Conditions | x1 = 0.0968 | x1 = 0.1216 | x1 = 0.2366 | x1 = 0.347 | x1 = 0.4526 | x1 = 0.5534 | x1 = 0.6498 | x1 = 0.7432 | x1 = 0.832 | x1 = 0.917
293.15 K | 39.02 | 36.25 | 22.68 | 14.7 | 9.934 | 6.941 | 5.057 | 3.792 | 2.933 | 2.349
303.15 K | 22.78 | 21.44 | 14.24 | 9.752 | 6.915 | 5.053 | 3.822 | 2.965 | 2.363 | 1.935
313.15 K | 14.24 | 13.56 | 9.479 | 6.811 | 5.034 | 3.819 | 2.986 | 2.381 | 1.949 | 1.631
323.15 K | 9.382 | 9.048 | 6.609 | 4.951 | 3.793 | 2.97 | 2.388 | 1.957 | 1.635 | 1.397
